Reference: US20250145633A1, “SUBSTITUTED FURANOPYRIMIDINE COMPOUNDS AS PDE1 INHIBITORS” (Dart NeuroScience, LLC, priority 2017, published 2025)

Each molecule was assayed against human PDE1B enzyme (Homo sapiens (Human), UniProt Q01064) (assay: IMAP TR-FRET PDE1B enzymatic assay). Settings: negative log of half-maximal molar inhibitory concentration; 200 nM FAM-cAMP; values given as bins.
Format: biochemical
Outline: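 Full-length GST-tagged human PDE1B (250 pg/well) in IMAP BSA buffer with 10 U/ml calmodulin and 2.5 mM CaCl2; compound pre-incubated 5 min at room temperature, then 200 nM (final) FAM-cAMP for 30 min. IMAP binding reagent/Tb added, 1 h; TR-FRET 520/490 ratio read. IC50 from sigmoidal dose-response fit.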

Q: Which “PDE1b (pIC50)” value does the source give for Cc1oc2ncnc(NC3(C)CC3)c2c1C(=O)N1CCC(c2ncc(Cl)cn2)C1 (stereo not drawn) [Example 335, 5-[3-(5-Chloropyrimidin-2-yl)pyrrolidine-1-carbonyl]-6-methyl-N-(1-methylcyclopropyl)furo[2,3-d]pyrimidin-4-amine] here?
A: >8

Q: Which “PDE1b (pIC50)” value does the source give for COc1ccccc1[C@H]1[C@@H]2CN(C(=O)c3c(C)oc4ncnc(NC5(C)CC5)c34)C[C@@H]21 [Example 209, 5-[(1R,5S,6S)-6-(2-Methoxyphenyl)-3-azabicyclo[3.1.0]hexane-3-carbonyl]-6-methyl-N-(1-methylcyclopropyl)furo[2,3-d]pyrimidin-4-amine] here?
A: >8

Q: With COc1ccc(C2(NC(=O)c3c(C)oc4ncnc(NC5(C)CC5)c34)CC2)cc1F [Example 298, N-[1-(3-Fluoro-4-methoxyphenyl)cyclopropyl]-6-methyl-4-[(1-methylcyclopropyl)amino]furo[2,3-d]pyrimidine-5-carboxamide] as the molecule, how does the “PDE1b (pIC50)” value read?
A: >8

Q: Cc1oc2ncnc(NC3(C)CC3)c2c1C(=O)NC1(C(C)C)CC1 [Example 147, 6-Methyl-4-[(1-methylcyclopropyl)amino]-N-[1-(propan-2-yl)cyclopropyl]furo[2,3-d]pyrimidine-5-carboxamide] was tested. Which “PDE1b (pIC50)” value did it give?
A: >8

Q: With Cc1oc2ncnc(NC3(C)CC3)c2c1C(=O)N1CC(c2ccc(F)cc2)C1 [Example 56, 5-[3-(4-Fluorophenyl)azetidine-1-carbonyl]-6-methyl-N-(1-methylcyclopropyl)furo[2,3-d]pyrimidin-4-amine] as the molecule, how does the “PDE1b (pIC50)” value read?
A: >8

Q: Which “PDE1b (pIC50)” value does the source give for Cc1oc2ncnc(NC3(C)CC3)c2c1C(=O)N1CCc2cc(OCF)ccc2C1 [Example 765, 5-[6-(Fluoromethoxy)-1,2,3,4-tetrahydroisoquinoline-2-carbonyl]-6-methyl-N-(1-methylcyclopropyl)furo[2,3-d]pyrimidin-4-amine] here?
A: >8

Q: How did the “PDE1b (pIC50)” value turn out when Cc1oc2ncnc(NC3(C)CC3)c2c1C(=O)N1CCc2c(ncnc2OC2CCC2)C1 [Example 810, 5-{4-Cyclobutoxy-5H,6H,7H,8H-pyrido[3,4-d]pyrimidine-7-carbonyl}-6-methyl-N-(1-methylcyclopropyl)furo[2,3-d]pyrimidin-4-amine] was run?
A: >8

Q: For Cc1oc2ncnc(NC3(C)CC3)c2c1C(=O)N1CC=C(c2cnc(F)s2)CC1 [Example 783, 5-[4-(2-Fluoro-1,3-thiazol-5-yl)-1,2,3,6-tetrahydropyridine-1-carbonyl]-6-methyl-N-(1-methylcyclopropyl)furo[2,3-d]pyrimidin-4-amine], which “PDE1b (pIC50)” value is on record?
A: >8

Q: Which “PDE1b (pIC50)” value does the source give for Cc1oc2ncnc(NC3(C)CC3)c2c1C(=O)N1CCc2c(ncnc2OCC2CC2)C1 [Example 808, 5-[4-(Cyclopropylmethoxy)-5H,6H,7H,8H-pyrido[3,4-d]pyrimidine-7-carbonyl]-6-methyl-N-(1-methylcyclopropyl)furo[2,3-d]pyrimidin-4-amine] here?
A: >8

Q: How did the “PDE1b (pIC50)” value turn out when Cc1oc2ncnc(NC3(C)CC3)c2c1C(=O)N1CCC(c2cccc(C(F)(F)F)n2)C1 (stereo not drawn) [Example 801, 6-Methyl-N-(1-methylcyclopropyl)-5-f{3-[6-(trifluoromethyl)pyridin-2-yl]pyrrolidine-1-carbonyl}furo[2,3-d]pyrimidin-4-amine] was run?
A: >8

Same assay, conditions: negative log of half-maximal molar inhibitory concentration; 200 nM FAM-cAMP; values given as bins; read-out: PDE1b (pIC50) (converted)

Q: Cc1oc2ncnc(NC3(C)CC3)c2c1C(=O)NCc1cc(-c2cnn(C)c2)on1 [Example 352, 6-Methyl-N-{[5-(1-methyl-1H-pyrazol-4-yl)-1,2-oxazol-3-yl]methyl}-4-[(1-methylcyclopropyl)amino]furo[2,3-d]pyrimidine-5-carboxamide] was tested. Which IC50 did it give?
A: 0.01 to 0.1 µM

Q: Cc1oc2ncnc(NC3(C)CC3)c2c1C(=O)NCc1ncc(C(F)F)cn1 [Example 706, N-{[5-(Difluoromethyl)pyrimidin-2-yl]methyl}-6-methyl-4-[(1-methylcyclopropyl)amino]furo[2,3-d]pyrimidine-5-carboxamide] was tested. Which IC50 did it give?
A: 0.01 to 0.1 µM

Q: With CCC(NC(=O)c1c(C)oc2ncnc(NC3(C)CC3)c12)C1CC1 (stereo not drawn) [Example 401, N-(1-Cyclopropylpropyl)-6-methyl-4-[(1-methylcyclopropyl)amino]furo[2,3-d]pyrimidine-5-carboxamide] as the molecule, how does the IC50 read?
A: 0.01 to 0.1 µM

Q: For Cc1nc(NC(=O)c2c(C)oc3ncnc(NC4(C)CC4)c23)cs1 [Example 453, 6-Methyl-N-(2-methyl-1,3-thiazol-4-yl)-4-[(1-methylcyclopropyl)amino]furo[2,3-d]pyrimidine-5-carboxamide], which IC50 is on record?
A: 0.01 to 0.1 µM

Q: How did the IC50 turn out when Cc1oc2ncnc(NC3(C)CC3)c2c1C(=O)Nc1cnn(C2CCOCC2)c1 [Example 456, 6-Methyl-4-[(1-methylcyclopropyl)amino]-N-[1-(oxan-4-yl)-1H-pyrazol-4-yl]furo[2,3-d]pyrimidine-5-carboxamide] was run?
A: 0.01 to 0.1 µM

Q: For Cc1oc2ncnc(NC3(C)CC3)c2c1C(=O)NCc1ccccc1 [Example 177, N-Benzyl-6-methyl-4-[(1-methylcyclopropyl)amino]furo[2,3-d]pyrimidine-5-carboxamide], which IC50 is on record?
A: 0.01 to 0.1 µM

Q: How did the IC50 turn out when Cc1oc2ncnc(NC3(C)CC3)c2c1C(=O)N1CCN(c2ccnc(F)c2)CC1 [Example 160, 5-[4-(2-fluoropyridin-4-yl)piperazine-1-carbonyl]-6-methyl-N-(1-methylcyclopropyl)furo[2,3-d]pyrimidin-4-amine] was run?
A: 0.01 to 0.1 µM

Q: How did the IC50 turn out when Cc1oc2ncnc(NC3(C)CC3)c2c1C(=O)NCCc1cnc(C2CC2)nc1 [Example 693, N-[2-(2-Cyclopropylpyrimidin-5-yl)ethyl]-6-methyl-4-[(1-methylcyclopropyl)amino]furo[2,3-d]pyrimidine-5-carboxamide] was run?
A: 0.1 to 1 µM

Q: For Cc1cc(CNC(=O)c2c(C)oc3ncnc(NC4(C)CC4)c23)no1 [Example 113, 6-Methyl-N-[(5-methyl-1,2-oxazol-3-yl)methyl]-4-[(1-methylcyclopropyl)amino]furo[2,3-d]pyrimidine-5-carboxamide], which IC50 is on record?
A: 0.01 to 0.1 µM

Q: For Cc1oc2ncnc(NC3(C)CC3)c2c1C(=O)N1CCc2c(ncnc2C(C)C)C1 [Example 628, 6-Methyl-N-(1-methylcyclopropyl)-5-[4-(propan-2-yl)-5H,6H,7H,8H-pyrido[3,4-d]pyrimidine-7-carbonyl]furo[2,3-d]pyrimidin-4-amine], which IC50 is on record?
A: 0.01 to 0.1 µM

Q: With Cc1csc(CN(C)C(=O)c2c(C)oc3ncnc(NC4(C)CC4)c23)n1 [Example 700, N,6-Dimethyl-N-[(4-methyl-1,3-thiazol-2-yl)methyl]-4-[(1-methylcyclopropyl)amino]furo[2,3-d]pyrimidine-5-carboxamide] as the molecule, how does the IC50 read?
A: 0.01 to 0.1 µM

Q: How did the IC50 turn out when Cc1oc2ncnc(NC3(C)CC3)c2c1C(=O)NCc1ncc(C(F)(F)F)cn1 [Example 696, 6-Methyl-4-[(1-methylcyclopropyl)amino]-N-{[5-(trifluoromethyl)pyrimidin-2-yl]methyl}furo[2,3-d]pyrimidine-5-carboxamide] was run?
A: 0.01 to 0.1 µM

Q: How did the IC50 turn out when Cc1cccc(NC(=O)c2c(C)oc3ncnc(NC4(C)CC4)c23)c1 [Example 180, 6-Methyl-4-[(1-methylcyclopropyl)amino]-N-(3-methylphenyl)furo[2,3-d]pyrimidine-5-carboxamide] was run?
A: 0.01 to 0.1 µM

Q: Cc1oc2ncnc(NC3(C)CC3)c2c1C(=O)NCCc1cccs1 [Example 222, 6-Methyl-4-[(1-methylcyclopropyl)amino]-N-[2-(thiophen-2-yl)ethyl]furo[2,3-d]pyrimidine-5-carboxamide] was tested. Which IC50 did it give?
A: 0.01 to 0.1 µM

Q: Which IC50 does the source give for Cc1oc2ncnc(NC3(C)CC3)c2c1C(=O)NC(C)c1ccc(F)cc1 (stereo not drawn) [Example 68, N-[1-(4-Fluorophenyl)ethyl]-6-methyl-4-[(1-methylcyclopropyl)amino]furo[2,3-d]pyrimidine-5-carboxamide] here?
A: 0.01 to 0.1 µM

Q: How did the IC50 turn out when Cc1oc2ncnc(NC3(C)CC3)c2c1C(=O)NC(C)C [Example 136, 6-Methyl-4-[(1-methylcyclopropyl)amino]-N-(propan-2-yl)furo[2,3-d]pyrimidine-5-carboxamide] was run?
A: 0.01 to 0.1 µM

Q: With Cc1oc2ncnc(NC3(C)CC3)c2c1C(=O)N1CCCC2(C1)OCc1ccccc12 (stereo not drawn) [Example 379, 6-Methyl-N-(1-methylcyclopropyl)-5-({3H-spiro[2-benzofuran-1,3′-piperidine]-1′-yl}carbonyl)furo[2,3-d]pyrimidin-4-amine] as the molecule, how does the IC50 read?
A: 0.1 to 1 µM

Q: How did the IC50 turn out when CCN(Cc1cc(OC)ncn1)C(=O)c1c(C)oc2ncnc(NC3(C)CC3)c12 [Example 813, N-Ethyl-N-[(6-methoxypyrimidin-4-yl)methyl]-6-methyl-4-[(1-methylcyclopropyl)amino]furo[2,3-d]pyrimidine-5-carboxamide] was run?
A: 0.1 to 1 µM

Q: Cc1oc2ncnc(NC3(C)CC3)c2c1C(=O)N1CC[C@@H]2OCC[C@@H]21 [Example 155, 5-[(3aS,6aS)-Hexahydro-2H-furo[3,2-b]pyrrole-4-carbonyl]-6-methyl-N-(1-methylcyclopropyl)furo[2,3-d]pyrimidin-4-amine] was tested. Which IC50 did it give?
A: 0.01 to 0.1 µM

Q: Cc1oc2ncnc(NC3(C)CC3)c2c1C(=O)N1CCc2c(ncnc2OC2CC2)C1 [Example 811, 5-{4-Cyclopropoxy-5H,6H,7H,8H-pyrido[3,4-d]pyrimidine-7-carbonyl}-6-methyl-N-(1-methylcyclopropyl)furo[2,3-d]pyrimidin-4-amine] was tested. Which IC50 did it give?
A: 0.01 to 0.1 µM

Q: With COc1nccc(CNC(=O)c2c(C)oc3ncnc(NC4(C)CC4)c23)n1 [Example 449, N-[(2-Methoxypyrimidin-4-yl)methyl]-6-methyl-4-[(1-methylcyclopropyl)amino]furo[2,3-d]pyrimidine-5-carboxamide] as the molecule, how does the IC50 read?
A: 0.01 to 0.1 µM

Q: How did the IC50 turn out when Cc1oc2ncnc(NC3(C)CC3)c2c1C(=O)N1CCC(c2ncn(C)n2)CC1 [Example 777, 6-Methyl-5-[4-(1-methyl-1H-1,2,4-triazol-3-yl)piperidine-1-carbonyl]-N-(1-methylcyclopropyl)furo[2,3-d]pyrimidin-4-amine] was run?
A: 0.01 to 0.1 µM

Q: Which IC50 does the source give for Cc1oc2ncnc(NC3(C)CC3)c2c1C(=O)N1CCc2c(ncnc2N(C)C2CC2)C1 [Example 790, 5-{4-[Cyclopropyl(methyl)amino]-5H,6H,7H,8H-pyrido[3,4-d]pyrimidine-7-carbonyl}-6-methyl-N-(1-methylcyclopropyl)furo[2,3-d]pyrimidin-4-amine] here?
A: 0.01 to 0.1 µM
